Key:
[1] = molecular target: T1, GdpP (Staphylococcus aureus, UniProt A0A0H2XJV8); assay: radiolabelled c-di-AMP hydrolysis, TLC; assay type: biochemical
T1 construct: gene SAUSA300_0014

[2] = molecular target: T2, Pde2 (Staphylococcus aureus, UniProt A0A0H2XFX6); assay: radiolabelled pApA hydrolysis, TLC; assay type: biochemical
T2 construct: gene SAUSA300_1650
T2 sequence (A0A0H2XFX6 entry or part of it): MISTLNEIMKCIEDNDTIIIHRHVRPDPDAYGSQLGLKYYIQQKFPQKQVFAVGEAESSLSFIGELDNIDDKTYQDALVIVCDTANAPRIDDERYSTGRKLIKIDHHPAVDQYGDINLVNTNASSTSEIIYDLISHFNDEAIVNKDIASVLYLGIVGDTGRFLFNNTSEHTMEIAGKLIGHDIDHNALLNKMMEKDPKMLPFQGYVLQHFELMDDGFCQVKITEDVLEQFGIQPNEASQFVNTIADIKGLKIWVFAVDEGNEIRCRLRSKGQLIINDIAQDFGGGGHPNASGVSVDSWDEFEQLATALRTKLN

T1 sequence (A0A0H2XJV8 entry or part of it): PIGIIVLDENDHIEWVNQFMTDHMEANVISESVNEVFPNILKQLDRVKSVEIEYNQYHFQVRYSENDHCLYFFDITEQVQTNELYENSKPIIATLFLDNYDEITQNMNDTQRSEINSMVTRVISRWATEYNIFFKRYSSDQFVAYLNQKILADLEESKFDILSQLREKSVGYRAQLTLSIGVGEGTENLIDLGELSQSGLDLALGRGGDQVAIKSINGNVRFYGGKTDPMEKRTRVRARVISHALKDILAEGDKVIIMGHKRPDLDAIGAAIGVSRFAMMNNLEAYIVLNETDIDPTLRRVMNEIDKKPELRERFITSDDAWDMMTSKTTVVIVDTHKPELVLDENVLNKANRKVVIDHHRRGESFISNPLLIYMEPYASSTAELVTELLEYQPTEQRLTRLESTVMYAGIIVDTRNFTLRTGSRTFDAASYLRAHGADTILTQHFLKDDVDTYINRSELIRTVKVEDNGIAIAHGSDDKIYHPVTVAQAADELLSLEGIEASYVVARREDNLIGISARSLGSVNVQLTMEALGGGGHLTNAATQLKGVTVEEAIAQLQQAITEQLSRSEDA

Compound	IC50 [1] [µM]	IC50 [2] [µM]
Nc1ncnc2c1ncn2[C@@H]1O[C@H](COP(=O)(O)O[C@H]2[C@@H](O)[C@H](n3cnc4c(N)ncnc43)O[C@@H]2COP(=O)(O)O)[C@@H](O)[C@H]1O [pApA]	78 ± 2.34	
Nc1nc2c(ncn2[C@@H]2O[C@H](COP(=O)(O)OP(=O)(O)O)[C@@H](OP(=O)(O)OP(=O)(O)O)[C@H]2O)c(=O)[nH]1 [ppGpp]		139 ± 5.6

Reference: publication PMC5207132, “New Insights into the Cyclic Di-adenosine Monophosphate (c-di-AMP) Degradation Pathway and the Requirement of the Cyclic Dinucleotide for Acid Stress Resistance in Staphylococcus aureus” (The Journal of Biological Chemistry, 2016)
